The source of these data is ChEMBL document CHEMBL1121833, “Structure--sweetness relationship of L-aspartyl dipeptide analogues. A receptor site topology” (J Med Chem, 1981).

The nature of one test: Sweet potency as logarithm of sweet potency (log SP) relative to sucrose; No sweet. It is filed as functional.
For `CC1CCCCC1OC(=O)CCNC(=O)[C@H](N)CC(=O)O` (stereo partly drawn), the “Log SP” value was “Not sweet”.

With `CCC[C@@H](COC(=O)CC)NC(=O)[C@H](N)CC(=O)O`, the “Log SP” value is “Not sweet”.

With `CC[C@@H](CC(=O)OC1CCCCC1)NC(=O)[C@H](N)CC(=O)O`, the “Log SP” value was “Not sweet”.

Take `C[C@@H](COC(=O)c1ccccc1)NC(=O)[C@H](N)CC(=O)O`: the “Log SP” value was “Not sweet”.

A further test in a line: Sweet potency as logarithm of sweet potency (log SP) relative to sucrose. It is filed as functional.
Consider `CC[C@H](NC(=O)[C@H](N)CC(=O)O)C(=O)OC(C)C`, for which the Log SP amounted to 2.15.

`CCC(=O)OC[C@H](COC)NC(=O)[C@H](N)CC(=O)O` came in with a Log SP of 1.21.

The molecule `COC(=O)[C@@H](CSC(C)C)NC(=O)[C@H](N)CC(=O)O` gave a Log SP of 2.23.

Consider `CC(C)[C@@H](COC(=O)C1CCC1)NC(=O)[C@H](N)CC(=O)O`, for which the Log SP amounted to 1.06.

`C[C@@H](COC(=O)C1CCC1)NC(=O)[C@H](N)CC(=O)O` gave a Log SP of 2.24.

`COC(=O)[C@@H](CSC(C)(C)C)NC(=O)[C@H](N)CC(=O)O` showed a Log SP of 2.95.

For `CCC(CC)OC(=O)[C@@H](NC(=O)[C@H](N)CC(=O)O)C(=O)OC` (stereo in doubt; 198), the Log SP was determined as 2.79.

`COC(=O)[C@H](NC(=O)[C@H](N)CC(=O)O)C(=O)OC1CCCC1` returned a Log SP of 2.92.

Consider `CC(C)CC[C@H](C)NC(=O)[C@H](N)CC(=O)O`, for which the Log SP came out at 1.85.

Molecule `C=CC(=O)OC[C@H](C)NC(=O)[C@H](N)CC(=O)O` gave a Log SP of 1.85.

Molecule `N[C@H](CC(=O)O)C(=O)NCCC1CCCCC1` gave a Log SP of 0.85.

In the case of `CCOCC[C@H](C)NC(=O)[C@H](N)CC(=O)O`, the Log SP is 1.14.

As for `C[C@H](O)[C@@H](NC(=O)[C@@H](N)CC(=O)O)C(=O)OC1CCCCC1`, the Log SP was determined as 1.31.

With `CC(C)C(=O)OC[C@@H](NC(=O)[C@H](N)CC(=O)O)C(C)C`, the Log SP is 1.1.

For `CCC(=O)OC[C@H](C)NC(=O)[C@H](N)CC(=O)O`, the Log SP was determined as 1.86.

As to `CC(C)OC(=O)[C@H](CO)NC(=O)[C@H](N)CC(=O)O`, the Log SP is 1.96.

In the case of `COC(=O)[C@@H](CC1CCCCC1)NC(=O)[C@H](N)CC(=O)O`, the Log SP stood at 2.3.

Regarding `C[C@@H](Cc1ccco1)NC(=O)[C@H](N)CC(=O)O`, the Log SP amounted to 1.16.

As for `CCOC(=O)[C@H](NC(=O)[C@H](N)CC(=O)O)C(=O)OC1CCCC1`, the Log SP was determined as 2.44.

`CC[C@H](NC(=O)[C@H](N)CC(=O)O)C(=O)OC`: the Log SP stood at 1.04.

On to `CC[C@@H](COC(=O)C(C)C)NC(=O)[C@H](N)CC(=O)O`, for which the Log SP worked out at 1.38.

The molecule `COC(=O)CNC(=O)[C@H](N)CC(=O)O` registered a Log SP of 0.68.

As to `CC(Cc1ccccc1)NC(=O)[C@H](N)CC(=O)O` (stereo partly drawn), the Log SP stood at 1.56.

In the case of `COC(=O)CCCNC(=O)[C@H](N)CC(=O)O`, the Log SP worked out at 0.13.

Molecule `C[C@@H](O)[C@@H](NC(=O)[C@@H](N)CC(=O)O)C(=O)OC1CCCCC1` displayed a Log SP of 1.44.

For `CCC[C@@H](COC(C)=O)NC(=O)[C@H](N)CC(=O)O`, the Log SP was determined as 0.66.

`CCCCOC(=O)[C@H](CO)NC(=O)[C@H](N)CC(=O)O` returned a Log SP of 1.75.

`CCC(=O)OC[C@H](CC)NC(=O)[C@H](N)CC(=O)O` came in with a Log SP of 1.48.

`C[C@@H](CC(=O)OC(C)(C)C)NC(=O)[C@H](N)CC(=O)O` gave a Log SP of 0.68.

For `CC(C)COC(=O)[C@H](NC(=O)[C@@H](N)CC(=O)O)[C@@H](C)O`, the Log SP turned out to be 1.97.

The molecule `CC(=O)OCCNC(=O)[C@H](N)CC(=O)O` showed a Log SP of 0.28.

Molecule `COC(=O)C(NC(=O)[C@@H](N)CC(=O)O)C(=O)OC1CC2CCC1(C)C2(C)C` (stereo partly drawn) displayed a Log SP of 3.16.

In turn, `CC[C@@H](Cc1ccccc1)NC(=O)[C@H](N)CC(=O)O` came in with a Log SP of 0.89.

As for `COC(=O)C(NC(=O)[C@@H](N)CC(=O)O)C(=O)OC1CCCCC1C` (stereo in doubt; 202), the Log SP came out at 3.92.

Regarding `CC(=O)OC[C@@H](NC(=O)[C@H](N)CC(=O)O)C(C)C`, the Log SP worked out at 1.58.

Turning to `CCOC(=O)[C@H](C)NC(=O)[C@H](N)CC(=O)O`, the Log SP came out at 1.75.

As for `CC(C)OC(=O)[C@H](C)NC(=O)[C@H](N)CC(=O)O`, the Log SP amounted to 1.95.

For the molecule `CC(C)CC(=O)OC[C@H](C)NC(=O)[C@H](N)CC(=O)O`, the Log SP amounted to 2.08.

Regarding `COC(=O)[C@@H](COC(=O)C(C)(C)C)NC(=O)[C@H](N)CC(=O)O`, the Log SP came to 1.81.

`COC(=O)[C@@H](COC(C)=O)NC(=O)[C@H](N)CC(=O)O` gave a Log SP of 0.91.

In the case of `CCC(=O)OC[C@@H](NC(=O)[C@H](N)CC(=O)O)C(=O)OC`, the Log SP was found to be 1.53.

In turn, `CCCC(=O)OC[C@@H](NC(=O)[C@H](N)CC(=O)O)C(C)C` returned a Log SP of 0.4.

For the molecule `COC(=O)[C@H](NC(=O)[C@H](N)CC(=O)O)C(=O)OC(C)(C)C`, the Log SP worked out at 2.03.

Molecule `COC(=O)C(NC(=O)[C@@H](N)CC(=O)O)C(=O)OCC1C2(C)CCC(C2)C1(C)C` (stereo partly drawn) yielded a Log SP of 4.79.

The molecule `COC(=O)C[C@H](C)NC(=O)[C@H](N)CC(=O)O` had a Log SP of 0.43.

With `N[C@H](CC(=O)O)C(=O)N[C@@H](CO)COC(=O)C1CCCC1`, the Log SP stood at 0.92.

Molecule `N[C@H](CC(=O)O)C(=O)NCCOC(=O)C1CCC1` yielded a Log SP of 0.99.

For the molecule `COC(=O)[C@H](NC(=O)[C@H](N)CC(=O)O)C(=O)OC1CCCCC1`, the Log SP came to 3.14.

`COC(=O)[C@H](NC(=O)[C@@H](N)CC(=O)O)[C@H](C)O` showed a Log SP of 1.26.

In the case of `CCCC(O)[C@H](NC(=O)[C@H](N)CC(=O)O)C(=O)OC` (stereo in doubt; 57), the Log SP was 0.75.

`COC(=O)C(NC(=O)[C@@H](N)CC(=O)O)C(=O)OC1CC(C)CC(C)(C)C1` (stereo partly drawn): the Log SP is 2.76.

As to `CCC(=O)OCCNC(=O)[C@H](N)CC(=O)O`, the Log SP is 0.61.

With `CCC(CC)OC(=O)[C@@H](NC(=O)[C@H](N)CC(=O)O)C(=O)OC` (stereo in doubt; 199), the Log SP was found to be 3.06.

As for `CCCOC(=O)CNC(=O)[C@H](N)CC(=O)O`, the Log SP is 0.98.

`COC(=O)[C@@H](CCCCNC(C)=O)NC(=O)[C@H](N)CC(=O)O` returned a Log SP of 0.27.

Regarding `N[C@H](CC(=O)O)C(=O)NCCOC(=O)C1CC1`, the Log SP amounted to 1.03.

Regarding `CCCOC(=O)[C@H](NC(=O)[C@@H](N)CC(=O)O)[C@@H](C)O`, the Log SP worked out at 2.08.

In turn, `C[C@@H](CC1CCCCC1)NC(=O)[C@H](N)CC(=O)O` returned a Log SP of 1.57.

Take `C=C(C)C(=O)OC[C@H](C)NC(=O)[C@H](N)CC(=O)O`: the Log SP is 1.99.

Molecule `N[C@H](CC(=O)O)C(=O)N[C@@H](CO)COC(=O)C1CC1` showed a Log SP of 1.96.

`CCCOC(=O)[C@H](CCC)NC(=O)[C@H](N)CC(=O)O` had a Log SP of 1.56.

`CCCCC[C@H](C)NC(=O)[C@H](N)CC(=O)O` (stereo in doubt; 12) had a Log SP of 1.56.

`N[C@H](CC(=O)O)C(=O)NCCC(=O)OC1CCCC1` displayed a Log SP of 1.16.

For `CC(CNC(=O)[C@H](N)CC(=O)O)C(=O)OC1CCCC1` (stereo partly drawn), the Log SP amounted to 0.88.

Molecule `CC(C)OC(=O)CCNC(=O)[C@H](N)CC(=O)O` came in with a Log SP of 0.7.

`CCCOC(=O)[C@H](C)NC(=O)[C@H](N)CC(=O)O`: the Log SP was 2.1.

Regarding `CCOC(=O)[C@H](NC(=O)[C@@H](N)CC(=O)O)[C@H](C)O`, the Log SP stood at 1.93.

`CCCOC(=O)[C@H](CO)NC(=O)[C@H](N)CC(=O)O` registered a Log SP of 2.39.

Molecule `CCOC(=O)C[C@H](C)NC(=O)[C@H](N)CC(=O)O` (stereo in doubt; 133) displayed a Log SP of 0.88.

`C[C@@H](COC(=O)C1CC1)NC(=O)[C@H](N)CC(=O)O` yielded a Log SP of 2.18.

Take `N[C@H](CC(=O)O)C(=O)NCC(=O)OC1CCCCC1`: the Log SP was determined as 1.02.

`COC(=O)[C@@H](CC(=O)OC(C)(C)C)NC(=O)[C@H](N)CC(=O)O` displayed a Log SP of 1.3.

The molecule `CC(=O)OC[C@H](C)NC(=O)[C@H](N)CC(=O)O` gave a Log SP of 1.61.

As to `COC(=O)[C@@H](CCC(C)C)NC(=O)[C@H](N)CC(=O)O`, the Log SP was determined as 2.11.

For `COC(=O)[C@@H](Cc1ccc(O)cc1)NC(=O)[C@H](N)CC(=O)O`, the Log SP worked out at 2.15.

For the molecule `CCCC(=O)OC[C@H](C)NC(=O)[C@H](N)CC(=O)O`, the Log SP was found to be 1.58.

The molecule `CC(C)COC(=O)[C@H](NC(=O)[C@@H](N)CC(=O)O)[C@H](C)O` displayed a Log SP of 1.36.

`COC(=O)C(NC(=O)[C@@H](N)CC(=O)O)C(=O)OC1CCCCC1C` (stereo in doubt; 203) registered a Log SP of 4.11.

In turn, `CC(C)C(=O)OCCNC(=O)[C@H](N)CC(=O)O` gave a Log SP of 1.16.

As for `CC(C)COC(=O)[C@H](CO)NC(=O)[C@H](N)CC(=O)O`, the Log SP is 2.21.

With `CCCCCCC(C)NC(=O)[C@H](N)CC(=O)O` (stereo partly drawn), the Log SP is 1.17.

Take `CCC(CC)OC(=O)CCNC(=O)[C@H](N)CC(=O)O`: the Log SP is 0.6.

For `C[C@@H](CC(=O)OC1CCCCC1)NC(=O)[C@H](N)CC(=O)O`, the Log SP stood at 0.64.

Take `COC(=O)C[C@@H](NC(=O)[C@H](N)CC(=O)O)C(=O)OC`: the Log SP turned out to be 0.6.

`COC(=O)[C@@H](COC(=O)C(C)C)NC(=O)[C@H](N)CC(=O)O` returned a Log SP of 1.65.

`CC(C)(Cc1ccccc1)NC(=O)[C@H](N)CC(=O)O` yielded a Log SP of 1.19.

`CCCOC(=O)[C@H](CC)NC(=O)[C@H](N)CC(=O)O` came in with a Log SP of 1.86.

In the case of `CCCCC(=O)OC[C@H](C)NC(=O)[C@H](N)CC(=O)O`, the Log SP was 0.6.

Turning to `CCC(C)OC(=O)CCNC(=O)[C@H](N)CC(=O)O` (stereo partly drawn), the Log SP was 0.73.

Consider `CCC(C)C(=O)OC[C@H](CO)NC(=O)[C@H](N)CC(=O)O` (stereo partly drawn), for which the Log SP is 1.21.

Molecule `CC[C@@H](COC(C)=O)NC(=O)[C@H](N)CC(=O)O` gave a Log SP of 1.16.

For the molecule `COC(=O)[C@H](Cc1ccccc1)NC(=O)[C@@H](N)CC(=O)O`, the Log SP amounted to 2.11.

On to `CCCC(=O)OCCNC(=O)[C@H](N)CC(=O)O`, for which the Log SP came out at 0.56.

`CCCC(=O)OC[C@H](CO)NC(=O)[C@H](N)CC(=O)O`: the Log SP was 0.58.
